Reference: patent US9593108B2, “Compounds and methods for antiviral treatment” (PTC Therapeutics, Inc., priority 2009, dated 2017)

What was measured:
[1] = tested on: HCV replicon RNA (GenBank Accession No. AJ242654); assay: HCV Replicon Assay (replicon RNA reduction and/or Fluc reporter signal); format: cell-based, Hepatitis C virus; settings: Hepatitis C virus, 72 h, replicon-containing cells cultured with test compound for up to 3 days
Method in brief: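 Bicistronic replicon-containing cells cultured with compound for up to 3 days, with interferon as positive control. Inhibition quantified by replicon RNA reduction and/or Fluc reporter signal; IC50 values generally derived from replicon RNA reduction.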

**Q.** For Cc1cnc2c(c1)c(C#N)c(-c1ncc(S(=O)(=O)N[C@@H](C)C(F)(F)F)cn1)n2C1CCC1 [Cpd 71, 2-(3-cyano-1-cyclobutyl-5-methyl-1H-pyrrolo[2,3-b]pyridin-2-yl)-N-[(2S)-1,1,1-trifluoropropan-2-yl]pyrimidine-5-sulfonamide], which IC50 [1] is on record?
**A.** < 500 nM

**Q.** And the melting point?
**A.** 186 to 188 °C

**Q.** With Cc1cnc2c(c1)c(C#N)c(-c1ccc(S(=O)(=O)N[C@H](C)C(F)(F)F)cc1)n2C1CCC1 [Cpd 72, 4-(3-cyano-1-cyclobutyl-5-methyl-1H-pyrrolo[2,3-b]pyridin-2-yl)-N-[(2R)-1,1,1-trifluoropropan-2-yl]benzenesulfonamide] as the compound, how does the IC50 [1] read?
**A.** < 500 nM

**Q.** What about the melting point of the same compound?
**A.** 197 to 198 °C

**Q.** Which results are given for Cc1cnc2c(c1)c(C#N)c(-c1ccc(S(=O)(=O)N[C@@H](C)C(F)(F)F)cc1)n2C1CCC1 [Cpd 73, 4-(3-cyano-1-cyclobutyl-5-methyl-1H-pyrrolo[2,3-b]pyridin-2-yl)-N-[(2S)-1,1,1-trifluoropropan-2-yl]benzenesulfonamide]?
**A.** IC50 [1]: < 500 nM; melting point: 197 to 198 °C

**Q.** Which IC50 [1] does the source give for Cc1cnc2c(c1)c(C#N)c(-c1ccc(S(=O)(=O)NC3(C(F)(F)F)CC3)cn1)n2C1CCC1 [Cpd 74, 6-(3-cyano-1-cyclobutyl-5-methyl-1H-pyrrolo[2,3-b]pyridin-2-yl)-N-[1-(trifluoromethyl)cyclopropyl]pyridine-3-sulfonamide] here?
**A.** < 500 nM

**Q.** And the melting point?
**A.** 245 to 247 °C

**Q.** For Cc1cnc2c(c1)c(C#N)c(-c1ccc(S(=O)(=O)NC3(C(F)(F)F)CC3)cc1)n2C1CCC1 [Cpd 75, 4-(3-cyano-1-cyclobutyl-5-methyl-1H-pyrrolo[2,3-b]pyridin-2-yl)-N-[1-(trifluoromethyl)cyclopropyl]benzenesulfonamide], which IC50 [1] is on record?
**A.** < 500 nM

**Q.** What about the melting point of the same compound?
**A.** 187 to 188 °C

**Q.** With Cc1cnc2c(c1)c(C#N)c(-c1ccc(S(=O)(=O)NC3(C)CC3)cn1)n2C1CCC1 [Cpd 76, 6-(3-cyano-1-cyclobutyl-5-methyl-1H-pyrrolo[2,3-b]pyridin-2-yl)-N-(1-methylcyclopropyl)pyridine-3-sulfonamide] as the compound, how does the IC50 [1] read?
**A.** 500 to 2000 nM

**Q.** And the melting point?
**A.** 188 to 189 °C

**Q.** With Cc1cnc2c(c1)c(C#N)c(-c1ccc(S(=O)(=O)NC3(C)CC3)cc1)n2C1CCC1 [Cpd 77, 4-(3-cyano-1-cyclobutyl-5-methyl-1H-pyrrolo[2,3-b]pyridin-2-yl)-N-(1-methylcyclopropyl)benzenesulfonamide] as the compound, how does the IC50 [1] read?
**A.** < 500 nM

**Q.** What about the melting point of the same compound?
**A.** 188 to 190 °C

**Q.** Which IC50 [1] does the source give for Cc1cnc2c(c1)c(C#N)c(-c1ncc(S(=O)(=O)NC(C)C)cn1)n2C1CCC1 [Cpd 78, 2-(3-cyano-1-cyclobutyl-5-methyl-1H-pyrrolo[2,3-b]pyridin-2-yl)-N-(propan-2-yl)pyrimidine-5-sulfonamide] here?
**A.** < 500 nM

**Q.** What about the melting point of the same compound?
**A.** 187 to 190 °C

**Q.** For Cc1cnc2c(c1)c(C#N)c(-c1ccc(S(=O)(=O)NC(C)(C)C(F)(F)F)cc1)n2C1CCC1 [Cpd 79, 4-(3-cyano-1-cyclobutyl-5-methyl-1H-pyrrolo[2,3-b]pyridin-2-yl)-N-(1,1,1-trifluoro-2-methylpropan-2-yl)benzenesulfonamide], which IC50 [1] is on record?
**A.** < 500 nM

**Q.** What about the melting point of the same compound?
**A.** 180 to 181 °C

**Q.** With C[C@H](NS(=O)(=O)c1ccc(-c2c(C#N)c3cnc(Cl)cc3n2C2CCCC2)nc1)C(F)(F)F [Cpd 80, 6-(6-chloro-3-cyano-1-cyclopentyl-1H-pyrrolo[3,2-c]pyridin-2-yl)-N-[(2S)-1,1,1-trifluoropropan-2-yl]pyridine-3-sulfonamide] as the compound, how does the IC50 [1] read?
**A.** < 500 nM

**Q.** And the melting point?
**A.** 235 to 237 °C

**Q.** Which results are given for C[C@@H](NS(=O)(=O)c1ccc(-c2c(C#N)c3cnc(Cl)cc3n2C2CCCC2)nc1)C(F)(F)F [Cpd 81, 6-(6-chloro-3-cyano-1-cyclopentyl-1H-pyrrolo[3,2-c]pyridin-2-yl)-N-[(2R)-1,1,1-trifluoropropan-2-yl]pyridine-3-sulfonamide]?
**A.** IC50 [1]: < 500 nM; melting point: 239 to 240 °C

**Q.** What does the source list for N#Cc1c(-c2ccc(S(=O)(=O)NC(CF)CF)cn2)n(C2CCCC2)c2cc(Cl)ncc12 [Cpd 82, 6-(6-chloro-3-cyano-1-cyclopentyl-1H-pyrrolo[3,2-c]pyridin-2-yl)-N-(1,3-difluoropropan-2-yl)pyridine-3-sulfonamide]?
**A.** IC50 [1]: < 500 nM; melting point: 231 to 233 °C

**Q.** Which results are given for N#Cc1c(-c2ccc(S(=O)(=O)NC3(C(F)(F)F)CC3)cn2)n(C2CCCC2)c2cc(Cl)ncc12 [Cpd 83, 6-(6-chloro-3-cyano-1-cyclopentyl-1H-pyrrolo[3,2-c]pyridin-2-yl)-N-[1-(trifluoromethyl)cyclopropyl]pyridine-3-sulfonamide]?
**A.** IC50 [1]: < 500 nM; melting point: 225 to 227 °C

**Q.** With CC1(NS(=O)(=O)c2ccc(-c3c(C#N)c4cnc(Cl)cc4n3C3CCCC3)nc2)CC1 [Cpd 84, 6-(6-chloro-3-cyano-1-cyclopentyl-1H-pyrrolo[3,2-c]pyridin-2-yl)-N-(1-methylcyclopropyl)pyridine-3-sulfonamide] as the compound, how does the IC50 [1] read?
**A.** < 500 nM

**Q.** What about the melting point of the same compound?
**A.** 209 to 211 °C

**Q.** For CC(C)NS(=O)(=O)c1cnc(-c2c(C#N)c3cnc(Cl)cc3n2C2CCCC2)nc1 [Cpd 85, 2-(6-chloro-3-cyano-1-cyclopentyl-1H-pyrrolo[3,2-c]pyridin-2-yl)-N-(propan-2-yl)pyrimidine-5-sulfonamide], which IC50 [1] is on record?
**A.** < 500 nM

**Q.** What about the melting point of the same compound?
**A.** 249 to 250 °C

**Q.** Which IC50 [1] does the source give for N#Cc1c(-c2ncc(S(=O)(=O)NC(CF)CF)cn2)n(C2CCCC2)c2cc(Cl)ncc12 [Cpd 86, 2-(6-chloro-3-cyano-1-cyclopentyl-1H-pyrrolo[3,2-c]pyridin-2-yl)-N-(1,3-difluoropropan-2-yl)pyrimidine-5-sulfonamide] here?
**A.** < 500 nM

**Q.** What about the melting point of the same compound?
**A.** 224 to 226 °C

**Q.** Which IC50 [1] does the source give for C[C@H](NS(=O)(=O)c1ccc(-c2c(C#N)c3cnc(Cl)cc3n2C2CCCC2)cc1)C(F)(F)F [Cpd 87, 4-(6-chloro-3-cyano-1-cyclopentyl-1H-pyrrolo[3,2-c]pyridin-2-yl)-N-[(2S)-1,1,1-trifluoropropan-2-yl]benzenesulfonamide] here?
**A.** < 500 nM

**Q.** What about the melting point of the same compound?
**A.** 238 to 240 °C

**Q.** Which results are given for C[C@@H](NS(=O)(=O)c1ccc(-c2c(C#N)c3cnc(Cl)cc3n2C2CCCC2)cc1)C(F)(F)F [Cpd 88, 4-(6-chloro-3-cyano-1-cyclopentyl-1H-pyrrolo[3,2-c]pyridin-2-yl)-N-[(2R)-1,1,1-trifluoropropan-2-yl]benzenesulfonamide]?
**A.** IC50 [1]: < 500 nM; melting point: 239 to 241 °C

**Q.** Which results are given for N#Cc1c(-c2ccc(S(=O)(=O)NC3(C(F)(F)F)CC3)cc2)n(C2CCCC2)c2cc(Cl)ncc12 [Cpd 89, 4-(6-chloro-3-cyano-1-cyclopentyl-1H-pyrrolo[3,2-c]pyridin-2-yl)-N-[1-(trifluoromethyl)cyclopropyl]benzenesulfonamide]?
**A.** IC50 [1]: 2000 to 5000 nM; melting point: 288 to 289 °C

**Q.** With Cc1ccc2c(C#N)c(-c3ccc(S(=O)(=O)N[C@@H](C)C(F)(F)F)cc3)n(C3CCC3)c2n1 [Cpd 90, 4-(3-cyano-1-cyclobutyl-6-methyl-1H-pyrrolo[2,3-b]pyridin-2-yl)-N-[(2S)-1,1,1-trifluoropropan-2-yl]benzenesulfonamide] as the compound, how does the IC50 [1] read?
**A.** < 500 nM

**Q.** And the melting point?
**A.** 169 to 177 °C

**Q.** For Cc1ccc2c(C#N)c(-c3ccc(S(=O)(=O)NC4(C(F)(F)F)CC4)cn3)n(C3CCC3)c2n1 [Cpd 94, 6-(3-cyano-1-cyclobutyl-6-methyl-1H-pyrrolo[2,3-b]pyridin-2-yl)-N-[1-(trifluoromethyl)cyclopropyl]pyridine-3-sulfonamide], which IC50 [1] is on record?
**A.** < 500 nM

**Q.** And the melting point?
**A.** 230 to 236 °C

**Q.** For Cc1ccc2c(C#N)c(-c3ccc(S(=O)(=O)NC(C)C)nc3)n(C3CCC3)c2n1 [Cpd 96, 5-(3-cyano-1-cyclobutyl-6-methyl-1H-pyrrolo[2,3-b]pyridin-2-yl)-N-(propan-2-yl)pyridine-2-sulfonamide], which IC50 [1] is on record?
**A.** < 500 nM

**Q.** And the melting point?
**A.** 211 to 216 °C

**Q.** With N#Cc1c(-c2ccc(S(=O)(=O)NC(CF)CF)cn2)n(C2CCC2)c2cc(Cl)ncc12 [Cpd 97, 6-(6-chloro-3-cyano-1-cyclobutyl-1H-pyrrolo[3,2-c]pyridin-2-yl)-N-(1,3-difluoropropan-2-yl)pyridine-3-sulfonamide] as the compound, how does the IC50 [1] read?
**A.** < 500 nM

**Q.** And the melting point?
**A.** 215 to 216 °C

**Q.** Which results are given for N#Cc1c(-c2ccc(S(=O)(=O)NC3(C(F)(F)F)CC3)cn2)n(C2CCC2)c2cc(Cl)ncc12 [Cpd 98, 6-(6-chloro-3-cyano-1-cyclobutyl-1H-pyrrolo[3,2-c]pyridin-2-yl)-N-[1-(trifluoromethyl)cyclopropyl]pyridine-3-sulfonamide]?
**A.** IC50 [1]: < 500 nM; melting point: 227 to 228 °C

**Q.** Which results are given for CC1(NS(=O)(=O)c2ccc(-c3c(C#N)c4cnc(Cl)cc4n3C3CCC3)nc2)CC1 [Cpd 99, 6-(6-chloro-3-cyano-1-cyclobutyl-1H-pyrrolo[3,2-c]pyridin-2-yl)-N-(1-methylcyclopropyl)pyridine-3-sulfonamide]?
**A.** IC50 [1]: < 500 nM; melting point: 167 to 168 °C

**Q.** What does the source list for CC(C)NS(=O)(=O)c1cnc(-c2c(C#N)c3cnc(Cl)cc3n2C2CCC2)nc1 [Cpd 100, 2-(6-chloro-3-cyano-1-cyclobutyl-1H-pyrrolo[3,2-c]pyridin-2-yl)-N-(propan-2-yl)pyrimidine-5-sulfonamide]?
**A.** IC50 [1]: < 500 nM; melting point: 238 to 239 °C

**Q.** For N#Cc1c(-c2ncc(S(=O)(=O)NC(CF)CF)cn2)n(C2CCC2)c2cc(Cl)ncc12 [Cpd 101, 2-(6-chloro-3-cyano-1-cyclobutyl-1H-pyrrolo[3,2-c]pyridin-2-yl)-N-(1,3-difluoropropan-2-yl)pyrimidine-5-sulfonamide], which IC50 [1] is on record?
**A.** < 500 nM

**Q.** And the melting point?
**A.** 237 to 238 °C

**Q.** What does the source list for C[C@H](NS(=O)(=O)c1ccc(-c2c(C#N)c3cnc(Cl)cc3n2C2CCC2)cc1)C(F)(F)F [Cpd 102, 4-(6-chloro-3-cyano-1-cyclobutyl-1H-pyrrolo[3,2-c]pyridin-2-yl)-N-[(2S)-1,1,1-trifluoropropan-2-yl]benzenesulfonamide]?
**A.** IC50 [1]: < 500 nM; melting point: 202 to 203 °C

**Q.** Which IC50 [1] does the source give for C[C@H](NS(=O)(=O)c1ccc(-c2c(C#N)c3ccncc3n2C2CCC2)nc1)C(F)(F)F [Cpd 103, 6-(3-cyano-1-cyclobutyl-1H-pyrrolo[2,3-c]pyridin-2-yl)-N-[(2S)-1,1,1-trifluoropropan-2-yl]pyridine-3-sulfonamide] here?
**A.** < 500 nM

**Q.** What about the melting point of the same compound?
**A.** 199 to 201 °C
